By Kd is commonly meant the concentration at which binding is half-saturated.

Non-standard residues stand in square brackets, D forms with d. Residues, ends and D or L forms follow the SMILES beside them. Aib = CC(C)(N)C(=O)O

Data on one compound can be found in patent US20250275944A1, “RELATIVE UNDERSUPPLY OF AN AMYLOID BETA AGGREGATION INHIBITOR FOR IMPROVED DETOXIFYING EFFECTS” (Galimedix Therapeutics Inc, priority 2022, published 2025).

Data set [1] can be described thus: Pharmacokinetics in the rat brain: microdialysis of brain interstitial fluid (prefrontal cortex), HPLC-MS/MS. The format is in vivo. As to the method: FIG. 2 Represents a graphical illustration of compound (1)'s pharmacokinetics in the rat brain. Compound (1) was administered as subcutaneous (s.c.) injection at doses of 0.4 mg/kg (∇) and […] (O, Δ). A microdialysis probe has been placed in the prefrontal cortex of these adult male Sprague Dawley rats to measure the concentration of compound (1) in the brain interstitial fluid (ISF) using a HPLC system with MS/MS detector. The dialysate samples were collected at a flow rate of 0.10 μL/min with a carrier flow rate of 0.8 μL/min. The animals were either anesthetized or awake and freely moving. Microdialysis data over a period of 360 min are depicted on a linear scale as means of 4 measurements±SEM.
The aim of this experiment was to evaluate the pharmacokinetics of compound (1) in the rat brain. Compound (1) was administered subcutaneously to anesthetized or awake and freely moving animals. A microdialysis probe has been placed in the prefrontal cortex of these adult male Sprague Dawley rats to measure the concentration of compound (1) in the brain interstitial fluid (ISF) using a HPLC system with MS/MS detector.

The next data set concerns the target T1, Aβ1-42 monomers (Homo sapiens, UniProt P05067).
T1 construct: purchased American Peptide Company, Sunnyvale, CA, USA; host or cells: synthetic peptide
The data set can be described thus: Surface Plasmon Resonance (SPR) binding of compound (1) to immobilized Aβ1-42 monomers (Biacore X100). The procedure: FIG. 1 Represents a graphical illustration of compound (1)'s target affinity to amyloid beta Aβ1-42 monomers using Surface Plasmon Resonance (SPR). Synthetic Aβ1-42 was used for this binding assay performed with a Biacore X100 biosensor instrument equipped with two flow cells. Aβ1-42 was covalently coupled to one flow cell of CM7 sensor chips using an amine coupling kit. HBS-EP was used as assay running buffer. The analyte compound (1) was injected over the sensor chip in concentrations ranging from 0.3 nM up to 1000 nM at a flow rate of 10 μL/min for 180 sec at 25° C. […]
The aim of this experiment was to evaluate the target affinity of compound (1) to misfolded Aβ1-42 monomers. The affinity was determined using in vitro Surface Plasmon Resonance (SPR) technology. […]
The resonance units (RUs) elicited by the compound injected into the ethanolamine control flow cell was set as reference response and subtracted from the RUs elicited by the same compound injected to the Aβ saturated flow cell. […] The dissociation equilibrium constant KD of the analyte to the immobilized Aβ was determined from the steady-state levels estimating the maximum RU Rmax and calculating the KD as the concentration of the compound that elicited one-half of the Rmax.

T1 sequence (P05067 672-713 limits assumed): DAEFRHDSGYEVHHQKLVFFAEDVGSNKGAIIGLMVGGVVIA

Consider `CC(C)(NC(=O)[C@H](N)Cc1c[nH]c2ccccc12)C(N)=O` [compound (1), (2R)-2-amino-N-(1-carbamomyl-1-methlyethyl)-3-(1H-indol-3-yl) propanamide] (H-[dW]-[Aib]-NH2), for which, in data set [1] (s.c. 0.4 mg/kg), the “peak brain concentration (extracellular space of the brain)” value was 10 nM. Further, in data set [1] (s.c. 2 mg/kg), the “brain concentration (brain ISF)” value is “ca. 60 nM”. The Kd on Aβ1-42 monomers (SPR steady state, 25° C, HBS-EP, 0.3-1000 nM, n=4, read-out: KD (dissociation constant) at Aβ1-42 monomers) turned out to be 2.5 ± 0.6 nM. Further, the “affinity to the target compared to GAL-101 (fold stronger)” value at Aβ1-42 monomers (compound (1) vs GAL-101) is given as 4 fold.
